In patent publication US20140220100A1, “VACCINE COMPOSITION FOR TRANSDERMAL ADMINISTRATION” (NITTO DENKO CORPORATION, priority 2013, published 2014):

System: IFN-γ-producing cells (spleen cells co-cultured with antigen peptide)
Experiment: Immunity Induction Test 1 in mouse (liquid formulation for external use), ELISPOT
Assay type: in vivo
Details: summary of Tables 1, 2 and 4; transdermal HER2/neu E75 peptide vaccine composition
Experimental: A cellulose non-woven fabric (area 0.8 cm^2) was attached to a middle part of an adhesive tape for fixing to prepare a composite substrate. The non-woven fabric part of the composite substrate was immersed with 67 μL of the liquid formulation for external use. Thus a sample for immunity induction test was prepared.
The liquid formulations for external use prepared as above described were used to perform an immunity induction test using a model mouse for immunological evaluation. The immunity induction level was evaluated by ELISPOT method. Specifically, the hair of the back skin of a mouse was cut, and the mouse was kept in a period for recovering from the skin damage. Thereafter, each sample was administered to the back skin of the mouse for a predetermined period, and then removed. After keeping the mouse for a predetermined day, the level of the cellular immunity induction specific for the antigen was evaluated. On a predetermined day after the administration, the spleen of the mouse was excised to prepare a suspension of the spleen cells. Spleen cells (3×10^6 cells/well) and an antigen peptide (100 μM) were added together with a culture solution into a well of ELISPOT plate containing an immobilized anti-mouse IFN-γ […], and co-cultured at 37° C. in 5% CO2 for 20 hours. The spot number of IFN-γ-producing cells was evaluated by ELISPOT method (the number of the spot/3×10^6 cells). The dosage of the liquid formulation for external use was all 67 μL as described above, and the administration was performed once (24 hr/week), the spleen was excised 6 days after the administration.
The results of the immunity induction test, and the measurement results of TSLP level and transepidermal water loss are shown in Table 1.

| SMILES | promotion of induction of cellular immunity by addition of a pharmacologically acceptable acid as second cellular immunity induction promoter |
| --- | --- |
| CCCCCCCCCCCCCCCC(=O)O [palmitic acid] | effective |
| O=C(O)c1ccccc1O [salicylic acid] | effective |
| CCCCCCCCCCCCCC(=O)O [myristic acid] | effective |
| CS(=O)(=O)O [methanesulfonic acid] | effective |
| CC(O)C(=O)O (stereo not drawn) [lactic acid] | effective |
| CC(C)CCCCCCCCCCCCCCC(=O)O [isostearic acid] | effective |
| CCCCCCCCCC(=O)O [decanoic acid] | effective |
| CCCCCCCC/C=C\CCCCCCCC(=O)O [oleic acid] | effective |
| O=C(O)/C=C\C(=O)O [maleic acid] | effective |
| CCCCCCCCCCCC(=O)O [lauric acid] | effective |
| O=C(O)CC(O)C(=O)O (stereo not drawn) [malic acid] | effective |
| CCCCCCCCCCCCCCCCCC(=O)O [stearic acid] | effective |
